Experimental data as given in patent US11452710B1, “Micronutrient and plant extract composition and method of improving bone health” (priority 2022, dated 2022).

Test system: alkaline phosphatase (ALP)
Details: 0.1-5 μg/ml, 48 h at 37° C., n=4; compared to the control and to the most stimulating agents (boron line 10, MSM line 15)
Method: In vitro differentiation (alkaline phosphatase activity (ALP) and core-binding factor alpha 1 (Cbfa-1) as a marker) assay: Human osteoblasts (1×10^5 cells/well of a 96-well plate) in a 100 μl cell culture medium were exposed to select micronutrients and plant extracts (0.1-5 μg/ml) for 48 h at 37° C., and lysed with assay buffer. Subsequently, 5 mM p-nitrophenyl phosphate (pNPP), as a phosphate substrate for alkaline phosphates, was added into all experimental wells for 1 h, followed by a stop solution. The absorbance was measured at 450 nm within 5 min. using a microplate reader.

Row | Compound | alkaline phosphatase (ALP) activity level in human osteoblasts
1 | CS(C)(=O)=O [MSM, methylsulfonylmethane] | most stimulating agents
2 | boron | most stimulating agents
